Data reported in ChEMBL document CHEMBL2203157, “5-(1,3-Benzothiazol-6-yl)-4-(4-methyl-1,3-thiazol-2-yl)-1H-imidazole derivatives as potent and selective transforming growth factor-β type I receptor inhibitors” (Bioorg Med Chem, 2012).
Values after ≈ are worked out from the molar mass of the structure shown.

What was measured:
[1] = molecular target: T1, TGF-beta receptor type-1 (Homo sapiens, UniProt P36897); experiment: Inhibition of human ALK5 using GST-tagged Smad3 as substrate assessed as substrate phosphorylation after 30 mins by ELISA
T1 sequence (P36897 whole entry): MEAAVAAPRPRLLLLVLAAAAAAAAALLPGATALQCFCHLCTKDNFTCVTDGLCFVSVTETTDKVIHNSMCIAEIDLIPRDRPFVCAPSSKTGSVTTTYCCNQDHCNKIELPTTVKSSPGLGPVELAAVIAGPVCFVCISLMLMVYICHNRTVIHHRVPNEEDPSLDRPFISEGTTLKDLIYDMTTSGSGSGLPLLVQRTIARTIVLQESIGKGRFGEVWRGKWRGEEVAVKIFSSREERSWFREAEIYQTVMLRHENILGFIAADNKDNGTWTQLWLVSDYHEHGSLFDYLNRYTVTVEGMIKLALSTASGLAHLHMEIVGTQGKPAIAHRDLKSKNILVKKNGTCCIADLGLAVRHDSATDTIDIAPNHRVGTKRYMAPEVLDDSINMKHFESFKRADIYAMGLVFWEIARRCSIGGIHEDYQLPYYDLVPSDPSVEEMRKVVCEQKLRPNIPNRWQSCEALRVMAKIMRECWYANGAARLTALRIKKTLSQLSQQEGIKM

[2] = molecular target: T1, TGF-beta receptor type-1; experiment: Inhibition of ALK5-mediated […]-induced Smad2/3 phosphorylation in human A549 cells preincubated for 2 hrs before addition of […] after 1 hr by fluorescence analysis; format: cell-based
[3] = Solubility of the compound by HPLC analysis; format: physicochemical
[4] = test system: Mus musculus; experiment: Inhibition of ALK5-mediated Smad2 phosphorylation in skin of C57BL/6 mouse depilation model at 3% administered topically measured after 8 hrs by Western blot analysis; format: functional
[5] = test system: Mus musculus; experiment: Inhibition of ALK5-mediated Smad2 phosphorylation in skin of C57BL/6 mouse depilation model at 1% administered topically measured after 8 hrs by Western blot analysis; format: functional
[6] = molecular target: Vascular endothelial growth factor receptor 2 (Homo sapiens, UniProt P35968); experiment: Inhibition of KDR
Chain of Vascular endothelial growth factor receptor 2 (P35968 whole entry): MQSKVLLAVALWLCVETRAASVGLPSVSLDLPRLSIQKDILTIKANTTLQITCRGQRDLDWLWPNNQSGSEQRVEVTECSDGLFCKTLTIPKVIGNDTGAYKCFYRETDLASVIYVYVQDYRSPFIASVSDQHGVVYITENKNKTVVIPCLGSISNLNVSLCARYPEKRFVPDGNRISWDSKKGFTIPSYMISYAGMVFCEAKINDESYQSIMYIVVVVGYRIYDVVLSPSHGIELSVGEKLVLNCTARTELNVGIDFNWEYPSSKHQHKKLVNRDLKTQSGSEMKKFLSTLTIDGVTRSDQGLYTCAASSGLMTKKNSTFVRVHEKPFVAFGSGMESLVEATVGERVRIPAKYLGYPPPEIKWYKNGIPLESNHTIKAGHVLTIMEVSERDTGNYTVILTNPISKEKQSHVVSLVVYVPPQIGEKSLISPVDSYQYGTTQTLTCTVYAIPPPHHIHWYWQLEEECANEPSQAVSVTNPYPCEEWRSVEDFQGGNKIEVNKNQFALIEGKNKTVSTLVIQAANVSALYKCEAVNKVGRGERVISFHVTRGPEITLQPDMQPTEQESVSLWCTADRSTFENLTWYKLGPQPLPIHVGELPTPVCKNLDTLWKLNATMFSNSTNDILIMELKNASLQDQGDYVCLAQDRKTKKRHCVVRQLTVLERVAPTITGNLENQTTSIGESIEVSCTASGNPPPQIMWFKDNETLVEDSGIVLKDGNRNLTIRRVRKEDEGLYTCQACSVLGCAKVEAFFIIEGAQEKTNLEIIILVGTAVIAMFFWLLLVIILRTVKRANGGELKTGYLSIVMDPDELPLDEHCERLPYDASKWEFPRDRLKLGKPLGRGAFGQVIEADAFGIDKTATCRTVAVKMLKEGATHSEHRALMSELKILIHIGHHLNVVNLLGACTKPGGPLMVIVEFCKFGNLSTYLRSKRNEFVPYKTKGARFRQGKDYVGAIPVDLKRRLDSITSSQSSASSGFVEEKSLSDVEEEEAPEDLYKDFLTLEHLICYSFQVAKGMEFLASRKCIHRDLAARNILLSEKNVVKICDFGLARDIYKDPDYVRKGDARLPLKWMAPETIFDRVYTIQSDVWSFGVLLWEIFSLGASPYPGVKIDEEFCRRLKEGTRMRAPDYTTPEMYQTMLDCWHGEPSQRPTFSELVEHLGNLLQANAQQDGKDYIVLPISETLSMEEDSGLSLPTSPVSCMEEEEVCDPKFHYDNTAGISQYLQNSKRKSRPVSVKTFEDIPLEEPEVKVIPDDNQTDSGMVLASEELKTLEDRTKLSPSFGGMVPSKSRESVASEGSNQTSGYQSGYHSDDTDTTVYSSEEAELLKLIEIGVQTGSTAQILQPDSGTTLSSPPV

Row | Compound | IC50 [1] [nM] | IC50 [2] [nM] | solubility [3] [mg/mL] | IC50 [6] [nM] | inhibition (INH) [4] [%] | inhibition (INH) [5] [%]
1 | Cc1csc(-c2nc[nH]c2-c2ccc3ncsc3c2)n1 | 2.7 | 8.7 | – | – | – | –
2 | Cc1csc(-c2nc(C)[nH]c2-c2ccc3ncsc3c2)n1 | 5.8 | 17 | 18.3 (≈ 58.6 mM) | – | – | –
3 | CCc1nc(-c2nc(C)cs2)c(-c2ccc3ncsc3c2)[nH]1 | 9 | 35 | – | – | – | –
4 | CCCc1nc(-c2nc(C)cs2)c(-c2ccc3ncsc3c2)[nH]1 | 8.1 | 33 | 14.9 (≈ 43.8 mM) | – | – | –
5 | Cc1csc(-c2nc(C(C)C)[nH]c2-c2ccc3ncsc3c2)n1 | 8.2 | 48 | – | – | – | –
6 | Cc1csc(-c2nc(C(F)(F)F)[nH]c2-c2ccc3ncsc3c2)n1 | 5.8 | 49 | 2.4 (≈ 6.55 mM) | – | – | –
7 | Cc1csc(-c2nc(C3CC3)[nH]c2-c2ccc3ncsc3c2)n1 | 8.8 | 45 | 23.6 (≈ 69.7 mM) | – | – | –
8 | Cc1csc(-c2nc(C3CCCCC3)[nH]c2-c2ccc3ncsc3c2)n1 | 12 | 75 | > 31.8 | – | – | –
9 | Cc1csc(-c2nc(C3CCOCC3)[nH]c2-c2ccc3ncsc3c2)n1 | 21 | 99 | 26.1 (≈ 68.2 mM) | – | – | –
10 | Cc1csc(-c2nc(C3CCNCC3)[nH]c2-c2ccc3ncsc3c2)n1 | 240 | – | – | – | – | –
11 | CCCCNCc1nc(-c2nc(C)cs2)c(-c2ccc3ncsc3c2)[nH]1 | 13 | 72 | – | – | – | –
12 | CCCC(=O)CCc1nc(-c2nc(C)cs2)c(-c2ccc3ncsc3c2)[nH]1 | 9 | 42 | – | – | – | –
13 | CCCCNC(=O)c1nc(-c2nc(C)cs2)c(-c2ccc3ncsc3c2)[nH]1 | 45 | 420 | – | – | – | –
14 | CNC(=O)CCCc1nc(-c2nc(C)cs2)c(-c2ccc3ncsc3c2)[nH]1 | 37 | 230 | – | – | – | –
15 | CCNC(=O)OCc1nc(-c2nc(C)cs2)c(-c2ccc3ncsc3c2)[nH]1 | 7.2 | 93 | – | – | – | –
16 | CCC(=O)NCCc1nc(-c2nc(C)cs2)c(-c2ccc3ncsc3c2)[nH]1 | 25 | 130 | – | – | – | –
17 | CC(=O)NCCCc1nc(-c2nc(C)cs2)c(-c2ccc3ncsc3c2)[nH]1 | 26 | 150 | – | – | – | –
18 | CCNC(=O)NCc1nc(-c2nc(C)cs2)c(-c2ccc3ncsc3c2)[nH]1 | 11 | 130 | – | – | – | –
19 | CCCS(=O)(=O)NCc1nc(-c2nc(C)cs2)c(-c2ccc3ncsc3c2)[nH]1 | 17 | 150 | – | – | – | –
20 | COC(=O)NCc1nc(-c2nc(C)cs2)c(-c2ccc3ncsc3c2)[nH]1 | 7.7 | 38 | 3.93 (≈ 10.2 mM) | – | – | –
21 | CCCOC(=O)NCc1nc(-c2nc(C)cs2)c(-c2ccc3ncsc3c2)[nH]1 | 7.3 | 36 | 9.8 (≈ 23.7 mM) | – | – | –
22 | CCCCOC(=O)NCc1nc(-c2nc(C)cs2)c(-c2ccc3ncsc3c2)[nH]1 | 9.1 | 74 | – | – | – | –
23 | Cc1csc(-c2nc(CNC(=O)OC(C)C)[nH]c2-c2ccc3ncsc3c2)n1 | 8.6 | 41 | 18.2 (≈ 44 mM) | – | – | –
24 | Cc1csc(-c2nc(CNC(=O)OCC(C)C)[nH]c2-c2ccc3ncsc3c2)n1 | 5.5 | 36 | – | 1080 | 90 | 59
25 | Cc1csc(-c2nc(CNC(=O)OCC(C)(C)C)[nH]c2-c2ccc3ncsc3c2)n1 | 9.3 | 79 | – | – | – | –

Further lines, with some results ahead:

Row | IC50 [1] [nM] | IC50 [2] [nM] | solubility [3] [mg/mL] | IC50 [6] [nM] | Compound | inhibition (INH) [4] [%] | inhibition (INH) [5] [%]
26 | 9 | 43 | – | – | Cc1csc(-c2nc(CC(C)C)[nH]c2-c2ccc3ncsc3c2)n1 | – | –
27 | 14 | 68 | 3.49 (≈ 9.84 mM) | – | Cc1csc(-c2nc(C(C)(C)C)[nH]c2-c2ccc3ncsc3c2)n1 | – | –
28 | 7 | 120 | – | – | CCCCCCc1nc(-c2nc(C)cs2)c(-c2ccc3ncsc3c2)[nH]1 | – | –
29 | 8.7 | 40 | 19.8 (≈ 54 mM) | – | Cc1csc(-c2nc(C3CCCC3)[nH]c2-c2ccc3ncsc3c2)n1 | – | –
30 | 23 | 89 | – | – | Cc1csc(-c2nc(C3CCC(=O)CC3)[nH]c2-c2ccc3ncsc3c2)n1 | – | –
31 | 26 | 130 | – | – | Cc1csc(-c2[nH]c(CN3CCCC3=O)nc2-c2ccc3ncsc3c2)n1 | – | –
32 | 28 | 110 | – | – | CCCC(=O)N(C)Cc1nc(-c2ccc3ncsc3c2)c(-c2nc(C)cs2)[nH]1 | – | –
33 | 12 | 71 | – | – | CCNC(=O)CCc1nc(-c2nc(C)cs2)c(-c2ccc3ncsc3c2)[nH]1 | – | –
34 | 8.3 | 190 | – | – | Cc1csc(-c2nc(CCCCC(N)=O)[nH]c2-c2ccc3ncsc3c2)n1 | – | –
35 | 4.5 | 35 | – | – | CCOC(=O)NCc1nc(-c2nc(C)cs2)c(-c2ccc3ncsc3c2)[nH]1 | – | –
36 | 8.1 | 92 | – | – | Cc1csc(-c2nc(CN3CCOC3=O)[nH]c2-c2ccc3ncsc3c2)n1 | – | –
37 | 11 | 140 | – | – | CCCCCOC(=O)NCc1nc(-c2nc(C)cs2)c(-c2ccc3ncsc3c2)[nH]1 | – | –
